Assay results published in article PMC3989234, “Introduction of Aromatic Ring-Containing Substituents in Cyclic Nucleotides Is Associated with Inhibition of Toxin Uptake by the Hepatocyte Transporters OATP 1B1 and 1B3” (PLoS ONE, 2014).
Read-outs that look alike come from different tables or passages of the source.

Tests used:
primary rat hepatocytes [1] = system: primary rat hepatocytes
OATP1B1 [2] = target: T1, OATP1B1 (Homo sapiens, UniProt Q9Y6L6)
T1 sequence (Q9Y6L6 1-691): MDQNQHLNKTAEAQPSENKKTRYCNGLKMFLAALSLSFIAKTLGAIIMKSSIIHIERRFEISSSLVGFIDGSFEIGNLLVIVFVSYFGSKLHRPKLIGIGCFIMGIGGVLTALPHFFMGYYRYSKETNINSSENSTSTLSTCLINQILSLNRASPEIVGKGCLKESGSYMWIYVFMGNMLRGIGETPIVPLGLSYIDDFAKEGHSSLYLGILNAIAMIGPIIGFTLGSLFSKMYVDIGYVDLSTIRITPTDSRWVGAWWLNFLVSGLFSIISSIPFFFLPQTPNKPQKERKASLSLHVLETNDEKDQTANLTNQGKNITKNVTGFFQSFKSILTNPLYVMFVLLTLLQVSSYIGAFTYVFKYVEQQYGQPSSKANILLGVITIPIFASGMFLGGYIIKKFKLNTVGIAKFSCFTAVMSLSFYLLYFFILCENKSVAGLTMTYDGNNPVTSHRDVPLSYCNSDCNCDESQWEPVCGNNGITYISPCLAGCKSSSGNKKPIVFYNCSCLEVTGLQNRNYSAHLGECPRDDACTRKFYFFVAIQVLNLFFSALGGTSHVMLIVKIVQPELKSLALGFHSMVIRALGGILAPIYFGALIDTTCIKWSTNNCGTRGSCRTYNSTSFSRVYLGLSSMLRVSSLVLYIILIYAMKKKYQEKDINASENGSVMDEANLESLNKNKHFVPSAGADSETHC

OATP1B3 [3] = target: T2, OATP1B3 (Homo sapiens, UniProt Q9NPD5)
T2 sequence (Q9NPD5 whole entry): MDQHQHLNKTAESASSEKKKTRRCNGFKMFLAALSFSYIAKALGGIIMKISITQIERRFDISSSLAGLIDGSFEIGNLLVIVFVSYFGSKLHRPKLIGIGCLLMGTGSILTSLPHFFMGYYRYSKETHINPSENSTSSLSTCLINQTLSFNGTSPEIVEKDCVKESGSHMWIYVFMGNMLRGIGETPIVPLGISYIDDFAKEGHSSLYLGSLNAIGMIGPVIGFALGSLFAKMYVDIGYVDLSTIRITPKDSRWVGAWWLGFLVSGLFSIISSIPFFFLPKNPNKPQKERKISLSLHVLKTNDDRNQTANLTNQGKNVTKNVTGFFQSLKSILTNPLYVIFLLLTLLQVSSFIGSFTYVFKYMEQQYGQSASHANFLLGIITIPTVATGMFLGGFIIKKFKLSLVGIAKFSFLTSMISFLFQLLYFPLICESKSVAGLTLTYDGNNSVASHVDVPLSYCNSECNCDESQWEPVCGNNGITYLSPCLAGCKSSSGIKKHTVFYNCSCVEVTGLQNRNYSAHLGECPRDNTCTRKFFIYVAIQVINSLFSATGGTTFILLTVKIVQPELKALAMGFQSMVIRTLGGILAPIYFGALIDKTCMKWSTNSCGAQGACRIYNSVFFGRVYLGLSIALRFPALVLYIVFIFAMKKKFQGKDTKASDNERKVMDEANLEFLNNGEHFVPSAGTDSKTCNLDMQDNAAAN

primary rat hepatocytes [4] = system: primary rat hepatocytes; remark: listed apart in the source
primary rat hepatocytes [5] = system: primary rat hepatocytes; remark: listed apart in the source
OATP1B3 [6] = target: T2, OATP1B3; assay: cell-based
OATP1B1 [7] = target: T1, OATP1B1; assay: cell-based

Nc1ncnc2c1nc(Br)n2C1OC2COP(O)(=S)OC2C1O (single isomer, unassigned) [Rp-8-Br-cAMPS, 8-Bromoadenosine-3′, 5′-cyclic monophosphorothioate, Rp-isomer]
Effect on Nod-induced hepatocyte apoptosis (Fig. 1F) (primary rat hepatocytes [1]; 300 µM, 150 nM Nod): inhibited apoptotic morphology | IC50 (OATP1B1 [2]): > 300 µM | IC50 (OATP1B3 [3]): > 300 µM

COC1C2OP(O)(=S)OCC2OC1n1c(Sc2ccc(Cl)cc2)nc2c(N)ncnc21 (single isomer, unassigned) [Rp-8-pCPT-2′-O-Me-cAMPS, 8-(4-Chlorophenylthio)-2′-O-methyladenosine-3′, 5′-cyclic monophosphorothioate, Rp-isomer]
IC50 (OATP1B1 [2]): > 300 µM | IC50 (OATP1B3 [3]): > 300 µM

CO[C@H]1C2OP(O)(=S)OC[C@H]2O[C@H]1n1c(Sc2ccc(Cl)cc2)nc2c(N)ncnc21 (single isomer, unassigned) [Sp-8-pCPT-2′-O-Me-cAMPS, 8-(4-Chlorophenylthio)-2′-O-methyladenosine-3′, 5′-cyclic monophosphorothioate, Sp- isomer]
Effect on [3H]-Nod accumulation in hepatocytes (primary rat hepatocytes [4]): almost completely inhibited | Effect on Nod-induced hepatocyte apoptosis (Fig. 2A) (primary rat hepatocytes [1]): clear inhibition | Effect on [14C]-glycocholic acid accumulation in hepatocytes (primary rat hepatocytes [5]; 50 µM): almost completely inhibited | IC50 (OATP1B1 [2]): 19.9 µM | Ki (OATP1B1 [2]): 6.63 µM | IC50 (OATP1B3 [3]): 8.7 µM | Ki (OATP1B3 [3]): 2.33 µM

CO[C@H]1C2OP(=O)(O)OC[C@H]2O[C@H]1n1c(Br)nc2c(N)ncnc21 (some centres unmarked) [8-Br-2′-O-Me-cAMP, 8-Bromo-2′-O-methyladenosine-3′, 5′-cyclic monophosphate]
IC50 (OATP1B1 [2]): > 300 µM | Effect on Nod-induced apoptosis / Nod transport, OATP1B3-transfected HEK293T cells (OATP1B3 [3]): some inhibition | IC50 (OATP1B3 [3]): > 300 µM

CO[C@@H]1[C@H](O)[C@@H](CO)O[C@H]1n1c(Sc2ccc(Cl)cc2)nc2c(N)ncnc21 [8-pCPT-2′-O-Me-Ado, 8-(4-Chlorophenylthio)-2′-O-methyladenosine]
IC50 (OATP1B3 [6]): 17.2 µM | Ki (OATP1B3 [6]): 4.61 µM | IC50 (OATP1B1 [7]): 31.3 µM | Ki (OATP1B1 [7]): 10.4 µM

CO[C@@H]1[C@@H]2OP(=O)(OCOC(C)=O)OC[C@H]2O[C@H]1n1c(Sc2ccc(Cl)cc2)nc2c(N)ncnc21 (some centres unmarked) [8-pCPT-2′-O-Me-cAMP-AM, 8-(4-Chlorophenylthio)-2′-O-methyladenosine-3′, 5′-cyclic monophosphate, acetoxymethyl ester]
Effect on [3H]-Nod accumulation in hepatocytes (primary rat hepatocytes [4]): did not affect | Effect on [14C]-glycocholic acid accumulation in hepatocytes (primary rat hepatocytes [5]; 50 µM): no inhibitory effect

O=P1(O)OCC2OC(n3c(Sc4ccc(Cl)cc4)nc4c(Nc5ccccc5)ncnc43)C(O)C2O1 (centres unmarked) [8-pCPT-6-Phe-cAMP, 8-(4-Chlorophenylthio)-N^6-phenyladenosine-3′, 5′-cyclic monophosphate]
Ki (OATP1B1 [2]): 2.07 µM | Ki (OATP1B3 [3]): 0.804 µM

O=P1(O)OC[C@H]2O[C@@H](n3c(Sc4ccc(Cl)cc4)nc4c(Nc5ccccc5)ncnc43)C[C@@H]2O1 [8-pCPT-6-Phe-dcAMP, 8-(4-Chlorophenylthio)-N^6-phenyladenosine-2′-deoxyadenosine 3′, 5′-cyclic monophosphate]
IC50 (OATP1B1 [2]): 8.2 µM | Ki (OATP1B1 [2]): 2.73 µM | IC50 (OATP1B3 [3]): 8 µM | Ki (OATP1B3 [3]): 2.14 µM

Nc1ncnc2c1ncn2[C@@H]1O[C@H](CO)[C@@H](O)[C@H]1O [Adenosine, adenosine]
IC50 (OATP1B3 [6]): > 300 µM | IC50 (OATP1B1 [7]): > 300 µM

CCCC(=O)Nc1ncnc2c1ncn2[C@@H]1O[C@@H]2COP(=O)(O)O[C@H]2[C@H]1O [Analog 6-MB-cAMP, N^6-Monobutyryladenosine-3′, 5′-cyclic monophosphate]
Effect on Nod-induced hepatocyte apoptosis (Fig. 1A) (primary rat hepatocytes [1]): no change in apoptosis induction | [14C]-GCA accumulation rel. to control (primary rat hepatocytes [5]; 50 µM): about 1.7 | [14C]-GCA accumulation rel. to control (primary rat hepatocytes [5]; 400 µM): 1.1 | Effect on Nod-induced apoptosis / Nod transport, OATP1B1-transfected HEK293T cells (OATP1B1 [2]): no inhibitory effect | IC50 (OATP1B1 [2]): > 300 µM | Effect on Nod-induced apoptosis / Nod transport, OATP1B3-transfected HEK293T cells (OATP1B3 [3]): no inhibitory effect | IC50 (OATP1B3 [3]): > 300 µM

Nc1ncnc2c1nc(Br)n2[C@@H]1O[C@@H]2COP(=O)(O)O[C@H]2[C@H]1O [Analog 8-Br-cAMP, 8-Bromoadenosine-3′, 5′-cyclic monophosphate]
IC50 (OATP1B1 [2]): > 300 µM | IC50 (OATP1B3 [3]): > 300 µM

Nc1nc2c(nc(Br)n2[C@@H]2O[C@@H]3COP(=O)(O)O[C@H]3[C@H]2O)c(=O)[nH]1 [Analog 8-Br-cGMP, 8-Bromoguanosine-3′, 5′-cyclic monophosphate]
Effect on Nod-induced apoptosis / Nod transport, OATP1B1-transfected HEK293T cells (OATP1B1 [2]): inactive | IC50 (OATP1B1 [2]): > 300 µM | Effect on Nod-induced apoptosis / Nod transport, OATP1B3-transfected HEK293T cells (OATP1B3 [3]): inactive | IC50 (OATP1B3 [3]): > 300 µM

Nc1ncnc2c1nc(Sc1ccc(Cl)cc1)n2[C@@H]1O[C@H](CO)[C@@H](O)[C@H]1O [Analog 8-pCPT-Ado, 8-(4-Chlorophenylthio)adenosine]
IC50 (OATP1B3 [6]): 150 µM | Ki (OATP1B3 [6]): 40.2 µM | IC50 (OATP1B1 [7]): > 300 µM

Nc1ncnc2c1nc(Sc1ccc(Cl)cc1)n2[C@@H]1O[C@@H]2COP(=O)([O-])O[C@H]2[C@H]1O.[Na+] [Analog 8-pCPT-cAMP, 8-(4-Chlorophenylthio)adenosine-3′, 5′-cyclic monophosphate]
Effect on Nod-induced hepatocyte apoptosis (Fig. 1A) (primary rat hepatocytes [1]): inhibited completely apoptotic morphology | Effect on Nod-induced hepatocyte apoptosis (Fig. 2A) (primary rat hepatocytes [1]): clear inhibition | [14C]-GCA accumulation compared to control (primary rat hepatocytes [5]): 60% | Effect on Nod-induced apoptosis / Nod transport, OATP1B1-transfected HEK293T cells (OATP1B1 [2]): inhibits | IC50 (OATP1B1 [2]): 130 µM | Ki (OATP1B1 [2]): 43.3 µM | Effect on Nod-induced apoptosis / Nod transport, OATP1B3-transfected HEK293T cells (OATP1B3 [3]): inhibits | IC50 (OATP1B3 [3]): 49.6 µM | Ki (OATP1B3 [3]): 13.3 µM

Nc1nc2c(nc(Sc3ccc(Cl)cc3)n2[C@@H]2O[C@@H]3COP(=O)(O)O[C@H]3[C@H]2O)c(=O)[nH]1 [Analog 8-pCPT-cGMP, 8-(4-Chlorophenylthio)guanosine-3′, 5′-cyclic monophosphate]
IC50 (OATP1B1 [2]): 259 µM | Ki (OATP1B1 [2]): 86.3 µM | IC50 (OATP1B3 [3]): 88.8 µM | Ki (OATP1B3 [3]): 29.6 µM

Nc1ncnc2c1nc(Sc1ccc(Cl)cc1)n2C1CC2OP(=O)(O)OCC2O1 (centres unmarked) [Analog 8-pCPT-dcAMP, 8-(4-Chlorophenylthio)adenosine-2′-deoxyadenosine-3′, 5′-cyclic monophosphate]
Effect on Nod-induced hepatocyte apoptosis (Fig. 2A) (primary rat hepatocytes [1]): blocked Nod-induced apoptosis | Effect on [14C]-glycocholic acid accumulation in hepatocytes (primary rat hepatocytes [5]): inhibited uptake | IC50 (OATP1B1 [2]): 223 µM | Ki (OATP1B1 [2]): 74.7 µM | IC50 (OATP1B3 [3]): 55.7 µM | Ki (OATP1B3 [3]): 14.9 µM

O=C1OC(c2ccc(O)c(S(=O)(=O)O)c2)(c2ccc(O)c(S(=O)(=O)O)c2)c2c(Br)c(Br)c(Br)c(Br)c21 [BSP, sulfobromophthalein]
Effect on [3H]-Nod accumulation in hepatocytes (primary rat hepatocytes [4]): complete inhibition | Effect on [14C]-glycocholic acid accumulation in hepatocytes (primary rat hepatocytes [5]; 50 µM): complete inhibition

CCCC(=O)Nc1ncnc2c1ncn2[C@@H]1O[C@@H]2COP(=O)(O)O[C@H]2[C@H]1OC(=O)CCC [DB-cAMP, N^6, 2′-O-Dibutyryladenosine-3′, 5′-cyclic monophosphate]
IC50 (OATP1B3 [6]): 119 µM | Effect on Nod-induced apoptosis / Nod transport, OATP1B1-transfected HEK293T cells (OATP1B1 [2]; human): but not to OATP1B1 activity | IC50 (OATP1B1 [7]): > 300 µM

CC(C)Cn1c(=O)n(C)c(=O)c2[nH]cnc21 [IBMX]
Effect on Nod-induced apoptosis, OATP1B1-transfected cells (OATP1B1 [2]; 250 µM): did not affect | Effect on Nod-induced apoptosis, OATP1B3-transfected cells (OATP1B3 [3]; 250 µM): did not affect

C/C=C1/C(=O)N[C@@H](C(=O)O)[C@H](C)C(=O)N[C@@H](CCCNC(=N)N)C(=O)N[C@@H](/C=C/C(C)=C/[C@H](C)[C@H](Cc2ccccc2)OC)[C@H](C)C(=O)N[C@@H](C(=O)O)CCC(=O)N1C [Nod, nodularin]
Km (OATP1B1 [2]; read-out: Km for Nod, OATP1B1): 0.05 µM | Km (OATP1B3 [3]; read-out: Km for Nod, OATP1B3): 0.22 µM

Nc1ncnc2c1ncn2C1OC2COP(=O)(O)OC2C1O (centres unmarked) [cAMP]
IC50 (OATP1B3 [6]): > 300 µM | Effect on Nod-induced apoptosis / Nod transport, OATP1B1-transfected HEK293T cells (OATP1B1 [2]): did not affect | Effect on Nod-induced apoptosis / Nod transport, OATP1B3-transfected HEK293T cells (OATP1B3 [3]): did not affect | IC50 (OATP1B1 [7]): > 300 µM

Nc1nc2c(ncn2[C@@H]2O[C@@H]3COP(=O)(O)O[C@H]3[C@H]2O)c(=O)[nH]1 [cGMP]
Effect on Nod-induced apoptosis / Nod transport, OATP1B1-transfected HEK293T cells (OATP1B1 [2]): did not affect | IC50 (OATP1B1 [2]): > 300 µM | Effect on Nod-induced apoptosis / Nod transport, OATP1B3-transfected HEK293T cells (OATP1B3 [3]): did not affect | IC50 (OATP1B3 [3]): > 300 µM

CO[C@H]1/C=C/O[C@@]2(C)Oc3c(C)c(O)c4c(O)c(cc(O)c4c3C2=O)NC(=O)/C(C)=C\C=C\[C@H](C)[C@H](O)[C@@H](C)[C@@H](O)[C@@H](C)[C@H](OC(C)=O)[C@@H]1C [rifamycin SV, Rifamycin SV]
Effect on Nod-induced apoptosis / Nod transport, OATP1B1-transfected HEK293T cells (OATP1B1 [2]): abolished | Effect on Nod-induced apoptosis / Nod transport, OATP1B3-transfected HEK293T cells (OATP1B3 [3]): abolished
